Here are results for two molecules from patent US20020192256A1, “Water miscible pesticide containing a synergistic cocktail of plant alkaloids” (priority 2000, published 2002).

Molecules are shown by their SMILES.

In this assay the test system is small green leafhoppers. As to the kind of experiment: Insecticidal activity of pesticides on small green leafhoppers on tea trees (Table IX). The format is in vivo. Details: 1d after Spray Efficacy (%) / 3d after Spray Efficacy (%) / 7d after Spray Efficacy (%): concentration or dose not given beside the values. How it is done:
Ninety-eight kilograms of this pesticide was mixed with 2 Kg of imidacloprid with low toxicity to mammals. The mixture was tested for its insecticidal efficacy on small green leafhoppers on tea trees and compared with those of 40% dichlorophos emulsion and imidacloprid, a highly toxic pesticide, and the extract of Sophora alopecuroides as described in section 1) under “Extract of alkaloids from plants”.

`COP(=O)(OC)OC=C(Cl)Cl` [Dichlorphos, dichlorophos]: the “1d after Spray Efficacy (%)” value is reported as 68.8%, the “1d after Spray Pests +/− Rate (%)” value was −43.48%, the “3d after Spray Efficacy (%)” value is 64.43% and the “3d after Spray Pests +/− Rate (%)” value is reported as −60.87%. Moreover, the “7d after Spray Efficacy (%)” value was determined as 60.32% and the “7d after Spray Pests +/− Rate (%)” value was −60.32%.
Regarding `O=[N+]([O-])NC1=NCCN1Cc1ccc(Cl)nc1` [Imidacloprid, imidacloprid], the “1d after Spray Efficacy (%)” value is given as 67.8%, the “1d after Spray Pests +/− Rate (%)” value was −48.47%, the “3d after Spray Efficacy (%)” value is recorded as 61.3% and the “3d after Spray Pests +/− Rate (%)” value is −60.3%. The “7d after Spray Efficacy (%)” value stood at 60.7% and the “7d after Spray Pests +/− Rate (%)” value is recorded as −60.7%.
